The source of these data is patent US12293809B2, “Workflow for generating compounds with biological activity against a specific biological target” (INSILICO MEDICINE IP LIMITED, priority 2019, dated 2025).

For one data set, the target named is hDDR1 (Homo sapiens, UniProt Q08345). As to the kind of experiment: Rescreen in another biochemical assay (Thermo Fisher-PR6913A). Particulars: read-out: IC50 towards DDR1 kinase, rescreen. The method, then:
In the present example, six molecules were generated, selected, and synthesized and were submitted for biological testing (e.g., within 35 days). […] Since the dose-response curves for Compounds 2 and 4 seemed likely inconsistent, additional experiments were performed to confirm the activity of these molecules towards DDR1 kinase (see FIG. 4B). […] Compounds 1 and 2 were also evaluated towards DDR2 kinase.
FIGS. 4A-4B show the structures and dose-response curves for the generated molecules. The six generated compounds were tested in a dose-dependent manner against DDR1 tyrosine kinase.

Data set [1] deals with α-actin (α-SMA) production in LX-2 cells. Kind of data set: LX-2 fibrosis assay, TGF-β stimulated (Western blot). Conditions: 14 nM. It is filed as cell-based, human. The method, then:
Collagen α1, α-SMA, CTGF and GAPDH were traced using Western blot analysis.
After 20 h growth in the reduced serum medium, the cells were treated with indicated doses of compounds for 30 minutes.
(In general: In western blotting, separated proteins are transferred to a membrane and probed.)

Another data set has as its target T1, CYP1A2 (Homo sapiens, UniProt P05177).
T1 construct: from tissue; host or cells: human liver microsomes (HLM)
T1 sequence (P05177 1-516): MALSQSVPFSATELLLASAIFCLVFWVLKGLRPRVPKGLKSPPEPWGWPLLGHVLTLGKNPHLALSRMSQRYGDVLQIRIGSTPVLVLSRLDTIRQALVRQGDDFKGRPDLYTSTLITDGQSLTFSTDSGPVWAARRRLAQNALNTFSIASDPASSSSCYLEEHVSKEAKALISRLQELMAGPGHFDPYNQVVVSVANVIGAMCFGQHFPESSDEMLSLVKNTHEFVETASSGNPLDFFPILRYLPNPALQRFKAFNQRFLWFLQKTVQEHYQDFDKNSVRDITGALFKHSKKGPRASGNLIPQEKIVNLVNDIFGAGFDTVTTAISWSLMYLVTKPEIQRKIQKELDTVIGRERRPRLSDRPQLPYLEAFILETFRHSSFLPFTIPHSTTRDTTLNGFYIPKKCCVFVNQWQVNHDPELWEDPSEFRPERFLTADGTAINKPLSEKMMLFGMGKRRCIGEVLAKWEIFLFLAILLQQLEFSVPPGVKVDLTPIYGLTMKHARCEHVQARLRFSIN
Kind of data set: Cytochrome inhibition in HLM. It is filed as in vitro ADME. The method, then: (§1) Water used in the assay and analysis was purified by ELGA Lab purification systems. Potassium phosphate buffer (PB) in concentration of 100 mM and MgCl2 in concentration of 33 mM were used. […] Microsomes were pulled out of the −80° C. freezer to thaw on ice, labeled the date and put back to freezer immediately after using. 20 μL of the substrates solutions were added to corresponding wells. 20 μL PB were added to Blank wells. 2 μL of the test compounds and positive control working solution were added to corresponding wells. Then, HLM working solution was prepared. 158 μL of the HLM working solution was added to all wells of incubation plate. The plate was pre-warmed for about 10 min at 37° C. water bath. Then, NADPH cofactor solution was prepared. 20 μL NADPH cofactor was added to all incubation wells. The solution was mixed and incubated for 10 minutes at 37° C. water bath. At the time point, the reaction was terminated by adding 400 μL cold stop solution (200 ng/mL Tolbutamide and 200 ng/mL Labetalol in ACN). The samples were centrifuged at 4000 rpm for 20 minutes to precipitate protein. 200 μL supernatant was transferred to 100 μL HPLC water and shaken for 10 min. XL fit was used to plot the percent of vehicle control versus the test compound concentrations, and for non-linear regression analysis of the data.

The target of a further data set is T2, CYP2C19 (Homo sapiens, UniProt P33261).
T2 construct: from tissue; host or cells: human liver microsomes (HLM)
Kind of data set: Cytochrome inhibition in HLM. It is filed as in vitro ADME. The method, then:
as §1, with “data. IC50 values were determined using 3- or 4-parameter logistic equation.” for “data.”

A further data set addresses T3, CYP2C9 (Homo sapiens, UniProt P11712).
T3 construct: from tissue; host or cells: human liver microsomes (HLM)
As to the kind of experiment: Cytochrome inhibition in HLM. The class given is in vitro ADME. The method, then:
as §1, with “data. IC50 values were determined using 3- or 4-parameter logistic equation.” for “data.”

The target in the next data set is T4, CYP2D6 (Homo sapiens, UniProt P10635).
T4 construct: from tissue; host or cells: human liver microsomes (HLM)
As to the kind of experiment: Cytochrome inhibition in HLM. It is filed as in vitro ADME. The method, then:
as §1, with “data. IC50 values were determined using 3- or 4-parameter logistic equation.” for “data.”

For another data set, the target named is T5, CYP3A4-M (Homo sapiens, UniProt P08684).
T5 construct: from tissue; host or cells: human liver microsomes (HLM)
As to the kind of experiment: Cytochrome inhibition in HLM. It is filed as in vitro ADME. The method, then:
as §1, with “data. IC50 values were determined using 3- or 4-parameter logistic equation.” for “data.”

The conditions of data set [2]: 10 μM. The method, then: Test compounds (at 10 μM) were incubated at 25° C. with 50 mM phosphate buffer, pH=7.4 and 8 mM MOPS pH 7.0, 0.2 mM EDTA, pH=7.0. Duplicate samples were used. […] Curcumin was used as positive control in this assay at neutral-basic condition. Samples were analyzed by LC/MS/MS, disappearance of test compound was assessed based on peak area ratios of analyte/IS (no standard curve).

Values joined by “and” are separate entries in the source; they are usually repeats but may differ in a detail not shown here. Equal entries are not always repeated. Where two headings read alike, the source gives them in different places.

T2 sequence (P33261 whole entry): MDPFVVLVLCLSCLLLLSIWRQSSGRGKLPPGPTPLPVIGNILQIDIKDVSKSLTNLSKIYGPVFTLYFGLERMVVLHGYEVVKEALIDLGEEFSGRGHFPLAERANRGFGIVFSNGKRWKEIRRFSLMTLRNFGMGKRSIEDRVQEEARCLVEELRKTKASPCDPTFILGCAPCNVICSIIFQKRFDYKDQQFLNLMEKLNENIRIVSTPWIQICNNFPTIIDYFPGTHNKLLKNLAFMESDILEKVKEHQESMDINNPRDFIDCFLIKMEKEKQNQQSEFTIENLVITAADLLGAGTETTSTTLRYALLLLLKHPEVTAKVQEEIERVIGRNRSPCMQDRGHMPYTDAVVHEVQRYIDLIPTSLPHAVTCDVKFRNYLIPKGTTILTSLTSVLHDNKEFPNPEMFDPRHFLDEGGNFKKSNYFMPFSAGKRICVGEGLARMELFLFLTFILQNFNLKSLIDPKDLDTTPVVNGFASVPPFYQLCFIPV
T4 sequence (P10635 whole entry): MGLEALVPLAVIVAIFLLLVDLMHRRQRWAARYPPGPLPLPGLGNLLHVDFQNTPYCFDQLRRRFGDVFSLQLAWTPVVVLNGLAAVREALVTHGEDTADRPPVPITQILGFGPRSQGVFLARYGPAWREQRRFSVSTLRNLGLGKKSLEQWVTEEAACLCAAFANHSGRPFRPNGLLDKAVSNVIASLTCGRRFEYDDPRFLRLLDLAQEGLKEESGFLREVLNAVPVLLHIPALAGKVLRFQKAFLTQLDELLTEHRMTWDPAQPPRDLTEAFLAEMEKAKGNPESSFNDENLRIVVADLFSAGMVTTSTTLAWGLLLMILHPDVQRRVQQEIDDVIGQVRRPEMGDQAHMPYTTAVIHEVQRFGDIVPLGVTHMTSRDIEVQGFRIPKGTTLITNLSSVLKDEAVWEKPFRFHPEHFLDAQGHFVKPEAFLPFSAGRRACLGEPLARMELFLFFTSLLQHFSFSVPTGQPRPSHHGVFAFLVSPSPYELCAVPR
Sequence of hDDR1 (Q08345 19-913): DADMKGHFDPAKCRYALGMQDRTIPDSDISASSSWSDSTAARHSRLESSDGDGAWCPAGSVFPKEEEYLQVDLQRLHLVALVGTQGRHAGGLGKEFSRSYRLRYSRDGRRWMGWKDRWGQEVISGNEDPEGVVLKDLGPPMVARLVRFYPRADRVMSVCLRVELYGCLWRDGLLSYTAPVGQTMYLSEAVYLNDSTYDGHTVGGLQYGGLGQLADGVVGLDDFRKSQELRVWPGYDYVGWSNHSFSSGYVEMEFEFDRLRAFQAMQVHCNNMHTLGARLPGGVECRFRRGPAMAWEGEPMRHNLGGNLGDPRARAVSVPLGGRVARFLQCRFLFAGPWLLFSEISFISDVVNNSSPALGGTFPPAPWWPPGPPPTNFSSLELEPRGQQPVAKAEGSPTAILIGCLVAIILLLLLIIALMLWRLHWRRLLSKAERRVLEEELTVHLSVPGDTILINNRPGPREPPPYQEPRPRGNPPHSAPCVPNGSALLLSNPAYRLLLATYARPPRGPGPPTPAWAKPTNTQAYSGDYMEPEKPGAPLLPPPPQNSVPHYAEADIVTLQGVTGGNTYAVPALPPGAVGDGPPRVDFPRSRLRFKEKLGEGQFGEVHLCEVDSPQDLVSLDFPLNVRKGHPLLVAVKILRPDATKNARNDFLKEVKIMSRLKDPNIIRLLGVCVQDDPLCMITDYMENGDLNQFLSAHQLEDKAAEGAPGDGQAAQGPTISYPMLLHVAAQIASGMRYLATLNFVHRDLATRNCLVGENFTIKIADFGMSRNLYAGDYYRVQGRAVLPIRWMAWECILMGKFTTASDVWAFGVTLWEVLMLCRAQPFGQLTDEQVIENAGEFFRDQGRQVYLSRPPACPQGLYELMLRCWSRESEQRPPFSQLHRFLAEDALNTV
T5 sequence (P08684 whole entry): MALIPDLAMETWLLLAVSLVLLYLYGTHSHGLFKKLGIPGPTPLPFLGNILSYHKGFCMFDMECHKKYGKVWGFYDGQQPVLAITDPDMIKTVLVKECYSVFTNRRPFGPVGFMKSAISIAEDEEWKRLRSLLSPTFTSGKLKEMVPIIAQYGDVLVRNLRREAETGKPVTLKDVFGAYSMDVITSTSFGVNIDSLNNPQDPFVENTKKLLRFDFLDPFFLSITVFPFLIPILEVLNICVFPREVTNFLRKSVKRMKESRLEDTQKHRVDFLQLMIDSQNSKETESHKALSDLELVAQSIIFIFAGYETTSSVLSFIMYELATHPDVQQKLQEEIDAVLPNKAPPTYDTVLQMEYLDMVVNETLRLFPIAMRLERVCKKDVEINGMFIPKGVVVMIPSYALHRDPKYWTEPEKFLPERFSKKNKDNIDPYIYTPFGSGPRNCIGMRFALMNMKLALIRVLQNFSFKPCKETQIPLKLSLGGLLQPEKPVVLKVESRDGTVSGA
T3 sequence (P11712 whole entry): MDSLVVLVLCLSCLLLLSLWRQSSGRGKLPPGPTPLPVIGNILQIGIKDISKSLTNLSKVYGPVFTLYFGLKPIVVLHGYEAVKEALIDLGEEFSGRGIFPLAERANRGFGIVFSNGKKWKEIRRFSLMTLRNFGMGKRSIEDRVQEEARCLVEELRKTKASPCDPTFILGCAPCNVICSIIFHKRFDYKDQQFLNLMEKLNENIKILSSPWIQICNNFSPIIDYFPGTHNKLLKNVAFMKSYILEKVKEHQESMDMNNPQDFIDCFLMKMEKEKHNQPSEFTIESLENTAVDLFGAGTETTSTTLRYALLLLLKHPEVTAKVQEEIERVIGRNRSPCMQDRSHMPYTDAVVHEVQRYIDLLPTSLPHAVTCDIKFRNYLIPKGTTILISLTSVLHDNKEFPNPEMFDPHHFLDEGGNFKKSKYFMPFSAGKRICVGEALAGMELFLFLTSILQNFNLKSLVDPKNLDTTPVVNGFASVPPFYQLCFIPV

With `O=C(Nc1cccc(C(=O)N2CCN(c3ccnc4[nH]ccc34)C2)c1)c1cccc(C(F)(F)F)c1` [Compound 2], the IC50 (as a rule, the midpoint of a concentration-inhibition curve) on hDDR1 was 0.037 µM and 0.0371 µM; on CYP1A2, 10.6 µM; at CYP2C19, 6.56 µM; against CYP2C9, 2.7 µM; on CYP2D6, 6.97 µM; on CYP3A4-M, 7.36 µM. Also, in data set [1], the “inhibition of α-SMA” value is reported as 15%. The “% Remain” value in data set [2] (8 mM MOPS pH 7.0, 0.2 mM EDTA, pH 7.0, 0 min) came out at 100.00%; in data set [2] (8 mM MOPS pH 7.0, 0.2 mM EDTA, pH 7.0, 120 min) it was 101.41%; in data set [2] (8 mM MOPS pH 7.0, 0.2 mM EDTA, pH 7.0, 240 min), 103.81%; in data set [2] (8 mM MOPS pH 7.0, 0.2 mM EDTA, pH 7.0, 360 min), 106.18%; in data set [2] (8 mM MOPS pH 7.0, 0.2 mM EDTA, pH 7.0, 1440 min), 105.37%; in data set [2] (50 mM phosphate buffer, pH 7.4, 0 min), 100.00%. In addition, the “% Remain” value in data set [2] (50 mM phosphate buffer, pH 7.4, 120 min) worked out at 100.65%; in data set [2] (50 mM phosphate buffer, pH 7.4, 240 min), 97.05%; in data set [2] (50 mM phosphate buffer, pH 7.4, 360 min), 100.07%; in data set [2] (50 mM phosphate buffer, pH 7.4, 1440 min), 107.23%.

For `Cc1ccc2c(Nc3cccc(C(F)(F)F)c3)noc2c1C#Cc1cnc2cccnn12` [Compound 1], the concentration for half-maximal inhibition (IC50) on CYP1A2 was 7.36 µM; against CYP2C19, greater than 50 µM; against CYP2C9 it was greater than 50 µM; at CYP2D6, greater than 50 µM; against CYP3A4-M it was greater than 50 µM.
